Data: patent publication US20090181963A1, “3H-[1,2,3]TRIAZOLO[4,5-D]PYRIMIDINE COMPOUNDS, THEIR USE AS mTOR KINASE AND PI3 KINASE INHIBITORS, AND THEIR [sequence]” (Wyeth, priority 2008, published 2009)

Assays:
PI3 Kinase γ = PI3 Kinase γ (Homo sapiens, UniProt P48736); test: Fluorescence polarization assay for PI3K (PI3 Kinase γ); type: biochemical; settings: diC8-PI(4,5)P2 substrate, 25 μM ATP, one hour at 25° C.
Experimental: (§1) Nunc 384 well black polypropylene fluorescent plates were used for PI3K assays. Reactions were quenched by the addition of EDTA to a final concentration of 10 μM. Final reaction volumes were 10 ml. […] Reactions were allowed to proceed for one hour at 25° C. After I hour, GST-tagged GRP1 (general receptor for phosphoinositides) PH domain fusion protein was added to a final concentration of 100 nM, and BODIPY-TMRI(1,3,4,5)P4 (Echelon) was also added to a final concentration of 5 nM. Final sample volumes were 25 μl with a final DMSO concentration of 0.8%. Assay Plates were read on PerkinElmer Envision plate readers with appropriate filters for Tamra [BODIPY-TMRI(1,3,4,5)P4]. Data obtained were used to calculate enzymatic activity and enzyme inhibition by inhibitor compounds.

PI3 Kinase α = PI3 Kinase α (Homo sapiens, UniProt P42336); test: Fluorescence polarization assay for PI3K (PI3 Kinase α); type: biochemical; settings: diC8-PI(4,5)P2 substrate, 25 μM ATP, one hour at 25° C.
PI3 Kinase α, sequence (P42336 whole entry): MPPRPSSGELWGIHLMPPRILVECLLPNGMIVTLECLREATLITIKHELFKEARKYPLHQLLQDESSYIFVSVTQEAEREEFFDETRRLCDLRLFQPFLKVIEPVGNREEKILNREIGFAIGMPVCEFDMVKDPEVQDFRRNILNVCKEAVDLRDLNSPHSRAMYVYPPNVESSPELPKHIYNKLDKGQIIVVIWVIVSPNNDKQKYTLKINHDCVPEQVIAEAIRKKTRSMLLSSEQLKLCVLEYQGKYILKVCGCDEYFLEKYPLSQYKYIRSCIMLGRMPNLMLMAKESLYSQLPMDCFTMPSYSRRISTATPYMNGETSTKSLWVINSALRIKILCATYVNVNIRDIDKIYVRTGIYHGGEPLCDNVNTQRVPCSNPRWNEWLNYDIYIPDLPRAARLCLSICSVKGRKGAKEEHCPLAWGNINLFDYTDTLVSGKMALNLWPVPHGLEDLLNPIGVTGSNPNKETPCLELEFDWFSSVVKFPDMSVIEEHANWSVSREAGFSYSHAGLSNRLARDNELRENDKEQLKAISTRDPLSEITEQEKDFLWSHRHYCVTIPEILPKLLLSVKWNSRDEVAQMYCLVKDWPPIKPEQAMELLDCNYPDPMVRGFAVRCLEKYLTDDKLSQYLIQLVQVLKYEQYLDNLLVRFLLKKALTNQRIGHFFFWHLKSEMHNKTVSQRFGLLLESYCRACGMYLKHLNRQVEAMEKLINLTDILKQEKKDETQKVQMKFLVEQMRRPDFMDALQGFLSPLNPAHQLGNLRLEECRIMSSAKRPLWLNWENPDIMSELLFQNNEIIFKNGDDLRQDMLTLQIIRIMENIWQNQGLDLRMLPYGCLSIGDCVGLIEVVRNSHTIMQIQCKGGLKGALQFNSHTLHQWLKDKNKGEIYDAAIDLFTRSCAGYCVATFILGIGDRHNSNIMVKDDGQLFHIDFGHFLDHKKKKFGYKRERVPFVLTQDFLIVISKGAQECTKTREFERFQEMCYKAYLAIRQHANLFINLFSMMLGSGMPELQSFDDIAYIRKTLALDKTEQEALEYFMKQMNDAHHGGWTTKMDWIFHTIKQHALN
PI3 Kinase α, sequence (P27986 whole entry partner): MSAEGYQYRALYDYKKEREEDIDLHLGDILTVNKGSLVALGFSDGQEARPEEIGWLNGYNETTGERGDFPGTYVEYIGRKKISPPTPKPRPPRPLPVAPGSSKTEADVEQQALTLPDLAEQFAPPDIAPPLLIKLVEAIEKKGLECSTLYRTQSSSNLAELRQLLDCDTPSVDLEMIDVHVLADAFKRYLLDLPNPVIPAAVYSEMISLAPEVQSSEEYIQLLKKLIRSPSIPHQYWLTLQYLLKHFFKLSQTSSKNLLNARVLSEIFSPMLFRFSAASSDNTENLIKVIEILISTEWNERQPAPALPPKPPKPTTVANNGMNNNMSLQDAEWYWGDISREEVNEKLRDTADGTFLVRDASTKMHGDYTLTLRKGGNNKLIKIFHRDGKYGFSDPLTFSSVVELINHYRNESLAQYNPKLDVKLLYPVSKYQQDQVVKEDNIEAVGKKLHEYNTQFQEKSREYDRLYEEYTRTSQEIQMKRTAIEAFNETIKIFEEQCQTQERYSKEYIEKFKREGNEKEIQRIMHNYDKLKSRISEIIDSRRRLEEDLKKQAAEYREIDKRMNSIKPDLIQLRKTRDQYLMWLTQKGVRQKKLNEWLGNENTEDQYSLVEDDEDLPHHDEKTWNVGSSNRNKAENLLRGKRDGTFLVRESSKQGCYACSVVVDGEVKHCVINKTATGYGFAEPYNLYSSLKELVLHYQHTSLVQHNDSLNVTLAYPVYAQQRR
Experimental: as §1

PI3 Kinase γ, sequence (P48736 whole entry): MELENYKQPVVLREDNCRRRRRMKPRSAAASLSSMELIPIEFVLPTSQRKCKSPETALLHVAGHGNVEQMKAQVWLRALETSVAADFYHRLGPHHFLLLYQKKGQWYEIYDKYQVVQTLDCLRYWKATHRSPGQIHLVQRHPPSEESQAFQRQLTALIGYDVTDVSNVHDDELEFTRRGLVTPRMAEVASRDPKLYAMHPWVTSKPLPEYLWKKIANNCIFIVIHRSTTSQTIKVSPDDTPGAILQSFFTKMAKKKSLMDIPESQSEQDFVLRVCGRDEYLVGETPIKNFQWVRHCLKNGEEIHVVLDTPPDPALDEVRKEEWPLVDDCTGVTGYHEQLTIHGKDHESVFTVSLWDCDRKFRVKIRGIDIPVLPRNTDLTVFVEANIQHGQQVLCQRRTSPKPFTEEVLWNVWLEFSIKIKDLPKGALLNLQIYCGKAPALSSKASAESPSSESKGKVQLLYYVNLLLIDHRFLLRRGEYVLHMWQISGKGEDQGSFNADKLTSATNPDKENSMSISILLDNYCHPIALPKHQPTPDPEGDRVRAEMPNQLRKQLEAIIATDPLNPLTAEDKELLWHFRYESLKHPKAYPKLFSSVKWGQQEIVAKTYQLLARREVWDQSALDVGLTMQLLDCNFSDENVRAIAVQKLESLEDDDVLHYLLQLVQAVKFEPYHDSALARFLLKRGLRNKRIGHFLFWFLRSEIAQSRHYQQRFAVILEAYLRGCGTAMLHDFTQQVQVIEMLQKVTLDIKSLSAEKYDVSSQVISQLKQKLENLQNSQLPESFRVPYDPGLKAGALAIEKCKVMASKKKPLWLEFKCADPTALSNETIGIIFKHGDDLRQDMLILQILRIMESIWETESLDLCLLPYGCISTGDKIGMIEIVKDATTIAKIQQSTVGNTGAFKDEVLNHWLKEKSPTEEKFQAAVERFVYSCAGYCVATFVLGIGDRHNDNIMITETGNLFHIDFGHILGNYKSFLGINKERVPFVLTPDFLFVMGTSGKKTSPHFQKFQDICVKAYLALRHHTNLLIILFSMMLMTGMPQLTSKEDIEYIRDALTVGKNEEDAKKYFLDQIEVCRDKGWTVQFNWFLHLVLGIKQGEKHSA

Compound | IC50 (PI3 Kinase γ) | IC50 (PI3 Kinase α)
CC(C)(C)OC(=O)N1CC(Cn2nnc3c(N4CCOCC4)nc(-c4ccc(NC(=O)Nc5ccccc5)cc4)nc32)C1 [Example 188, tert-butyl 3-[(7-morpholin-4-yl-5-{4-[(phenylcarbamoyl)amino]phenyl}-3H-[1,2,3]triazolo[4,5-d]pyrimidin-3-yl)methyl]azetidine-1-carboxylate] | 518 nM | 19.5 nM
O=C(c1ccc(F)c(F)c1)N1CCN(CCn2nnc3c(N4CCOCC4)nc(-c4cccc(O)c4)nc32)CC1 [Example 102, 3-(3-{2-[4-(3,4-difluorobenzoyl)piperazin-1-yl]ethyl}-7-morpholin-4-yl-3H-[1,2,3]triazolo[4,5-d]pyrimidin-5-yl)phenol] | 1920 nM | 1260 nM
Cn1nccc1CN1CCC(n2nnc3c(N4CCOCC4)nc(-c4cncc(O)c4)nc32)CC1 [Example 30, 5-(3-{1-[(1-methyl-1H-pyrazol-5-yl)methyl]piperidin-4-yl}-7-morpholin-4-yl-3H-[1,2,3]triazolo[4,5-d]pyrimidin-5-yl)pyridin-3-ol] | 2860 nM | 231 nM
COC(=O)c1ccc(Cn2nnc3c(N4CCOCC4)nc(-c4cccc(O)c4)nc32)cc1 [Example 241, methyl 4-{[5-(3-hydroxyphenyl)-7-morpholin-4-yl-3H-[1,2,3]triazolo[4,5-d]pyrimidin-3-yl]methyl}benzoate] | 4910 nM | 630 nM
CCn1nnc2c(N3CCOCC3)nc(-c3ccc(NC(=O)Nc4ccc(C(=O)N5CCC(N6CCCCC6)CC5)cc4)cc3)nc21 [Example 50, 1-[4-(1,4′-bipiperidin-1′-ylcarbonyl)phenyl]-3-[4-(3-ethyl-7-morpholin-4-yl-3H-[1,2,3]triazolo[4,5-d]pyrimidin-5-yl)phenyl]urea] | 18 nM | 1.8 nM
CC(C)(C)OC(=O)N1CC(Cn2nnc3c(N4CCOCC4)nc(-c4ccc(N)cc4)nc32)C1 [Example 187, tert-Butyl 3-{[5-(4-aminophenyl)-7-morpholin-4-yl-3H-[1,2,3]triazolo[4,5-d]pyrimidin-3-yl]methyl}azetidine-1-carboxylate] | 12000 nM | 2080 nM
CN(C)CCNC(=O)Nc1ccc(-c2nc(N3CCOCC3)c3nnn(C4CCN(Cc5ccc(Cl)cc5F)CC4)c3n2)cc1 [Example 156, 1-(4-(3-(1-(4-chloro-2-fluorobenzyl)piperidin-4-yl)-7-morpholino-3H-[1,2,3]triazolo[4,5-d]pyrimidin-5-yl)phenyl)-3-(2-(dimethylamino)ethyl)urea] | 557 nM | 170 nM
O=C(NCc1ccccc1)c1ccc(Cn2nnc3c(N4CCOCC4)nc(-c4cccc(O)c4)nc32)cc1 [Example 212, N-benzyl-4-{[5-(3-hydroxyphenyl)-7-morpholin-4-yl-3H-[1,2,3]triazolo[4,5-d]pyrimidin-3-yl]methyl}benzamide] | 766 nM | 78 nM
CC(C)(C)OC(=O)N1CC(n2nnc3c(N4CCOCC4)nc(-c4ccc(NC(=O)Nc5ccncc5)cc4)nc32)C1 [Example 129, tert-butyl 3-(7-morpholin-4-yl-5-{4-[(pyridin-4-ylcarbamoyl)amino]phenyl}-3H-[1,2,3]triazolo[4,5-d]pyrimidin-3-yl)azetidine-1-carboxylate] | 156 nM | 30 nM
CCn1nnc2c(N3CCOC[C@@H]3C)nc(-c3ccc(NC(=O)Nc4ccc(C#N)cc4)cc3)nc21 [Example 75, (S)-1-(4-cyanophenyl)-3-(4-(3-ethyl-7-(3-methylmorpholino)-3H-[1,2,3]triazolo[4,5-d]pyrimidin-5-yl)phenyl)urea] | 92.5 nM | 13.5 nM
CN(C)CCCOc1ccc(CN2CC(Cn3nnc4c(N5CCOCC5)nc(-c5ccc(NC(=O)Nc6ccccc6)cc5)nc43)C2)cc1 [Example 194, 1-(4-{3-[(1-{4-[3-(Dimethylamino)propoxy]benzyl}azetidin-3-yl)methyl]-7-morpholin-4-yl-3H-[1,2,3]triazolo[4,5-d]pyrimidin-5-yl}phenyl)-3-phenylurea] | 210 nM | 31 nM
CN(C)CCCOc1ccc(CN2CCC(n3nnc4c(N5CCOCC5)nc(-c5cccc(O)c5)nc43)CC2)cc1 [Example 146, 3-[3-(1-{4-[3-(dimethylamino)propoxy]benzyl}piperidin-4-yl)-7-morpholin-4-yl-3H-[1,2,3]triazolo[4,5-d]pyrimidin-5-yl]phenol] | 280 nM | 13 nM
Oc1cccc(-c2nc(N3CCOCC3)c3nnn(CCN4CCN(Cc5cccc(F)c5)CC4)c3n2)c1 [Example 109, 3-(3-{2-[4-(3-fluorobenzyl)piperazin-1-yl]ethyl}-7-morpholin-4-yl-3H-[1,2,3]triazolo[4,5-d]pyrimidin-5-yl)phenol] | 900 nM | 242 nM
O=C(Cn1nnc2c(N3CCOCC3)nc(-c3cccc(CO)c3)nc21)Nc1cccnc1 [Example 235, 2-{5-[3-(hydroxymethyl)phenyl]-7-morpholin-4-yl-3H-[1,2,3]triazolo[4,5-d]pyrimidin-3-yl}-N-pyridin-3-ylacetamide] | 2230 nM | 637 nM
CC(=O)N1CCN(CCn2nnc3c(N4CCOCC4)nc(-c4cccc(O)c4)nc32)CC1 [Example 105, 3-{3-[2-(4-acetylpiperazin-1-yl)ethyl]-7-morpholin-4-yl-3H-[1,2,3]triazolo[4,5-d]pyrimidin-5-yl}phenol] | 2960 nM | 1380 nM
O=C(NCCc1cnc[nH]1)c1ccc(Cn2nnc3c(N4CCOCC4)nc(-c4cccc(O)c4)nc32)cc1 [Example 231, 4-{[5-(3-hydroxyphenyl)-7-morpholin-4-yl-3H-[1,2,3]triazolo[4,5-d]pyrimidin-3-yl]methyl}-N-[2-(1H-imidazol-5-yl)ethyl]benzamide] | 2300 nM | 60 nM
Oc1cncc(-c2nc(N3CCOCC3)c3nnn(C4CCN(Cc5ccccc5)CC4)c3n2)c1 [Example 3, 5-[3-(1-benzylpiperidin-4-yl)-7-morpholin-4-yl-3H-[1,2,3]triazolo[4,5-d]pyrimidin-5-yl]pyridin-3-ol] | 133 nM | 69 nM

The remaining molecules from weak to strong by IC50 (PI3 Kinase γ), led by results:

IC50 (PI3 Kinase γ) | IC50 (PI3 Kinase α) | Compound
1430 nM | 21 nM | CC(C)(C)OC(=O)N1CC(n2nnc3c(N4CCOCC4)nc(-c4ccc(NC(=O)Nc5cccs5)cc4)nc32)C1 [Example 132, tert-butyl 3-(7-morpholin-4-yl-5-{4-[(2-thienylcarbamoyl)amino]phenyl}-3H-[1,2,3]triazolo[4,5-d]pyrimidin-3-yl)azetidine-1-carboxylate]
685 nM | 166 nM | CCCCN1CCC(n2nnc3c(N4CCOCC4)nc(-c4ccc(NC(=O)NCCN(C)C)cc4)nc32)CC1 [Example 159, 1-(4-(3-(1-butylpiperidin-4-yl)-7-morpholino-3H-[1,2,3]triazolo[4,5-d]pyrimidin-5-yl)phenyl)-3-(2-(dimethylamino)ethyl)urea]
544 nM | 911 nM | O=C(c1ccc(Cn2nnc3c(N4CCOCC4)nc(-c4cccc(O)c4)nc32)cc1)N1CCCC1 [Example 228, 3-{7-morpholin-4-yl-3-[4-(pyrrolidin-1-ylcarbonyl)benzyl]-3H-[1,2,3]triazolo[4,5-d]pyrimidin-5-yl}phenol]
342 nM | 74.5 nM | Cc1ccc(CN2CCC(n3nnc4c(N5CCOCC5)nc(-c5ccc(NC(=O)NCCN(C)C)cc5)nc43)CC2)s1 [Example 158, 1-(2-(dimethylamino)ethyl)-3-(4-(3-(1-((5-methylthiophen-2-yl)methyl)piperidin-4-yl)-7-morpholino-3H-[1,2,3]triazolo[4,5-d]pyrimidin-5-yl)phenyl)urea]
240 nM | 66 nM | Cc1ccc(CN2CCC(n3nnc4c(N5CCOCC5)nc(-c5cncc(O)c5)nc43)CC2)s1 [Example 21, 5-(3-{1-[(5-methyl-2-thienyl)methyl]piperidin-4-yl}-7-morpholin-4-yl-3H-[1,2,3]triazolo[4,5-d]pyrimidin-5-yl)pyridin-3-ol]
204 nM | 66 nM | CN(C)CCNC(=O)Nc1ccc(-c2nc(N3CCOCC3)c3nnn(C4CCN(Cc5ccccc5)CC4)c3n2)cc1 [Example 4, 1-{4-[3-(1-benzylpiperidin-4-yl)-7-morpholin-4-yl-3H-[1,2,3]triazolo[4,5-d]pyrimidin-5-yl]phenyl}-3-[2-(dimethylamino)ethyl]urea]
197 nM | 77.5 nM | CC(C)n1nnc2c(N3CCOCC3)nc(-c3ccc(NC(=O)NCCN(C)C)cc3)nc21 [Example 88, 1-[2-(dimethylamino)ethyl]-3-[4-(3-isopropyl-7-morpholin-4-yl-3H-[1,2,3]triazolo[4,5-d]pyrimidin-5-yl)phenyl]urea]
147 nM | 22 nM | CN1CCC(n2nnc3c(N4CCOCC4)nc(-c4ccc(NC(=O)Nc5cccnc5)cc4)nc32)CC1 [Example 164, 1-{4-[3-(1-methylpiperidin-4-yl)-7-morpholin-4-yl-3H-[1,2,3]triazolo[4,5-d]pyrimidin-5-yl]phenyl}-3-pyridin-3-ylurea]
132 nM | 34.5 nM | CC(C)n1nnc2c(N3CCOCC3)nc(-c3ccc(NC(=O)Nc4cnoc4)cc3)nc21 [Example 94, 1-[4-(3-isopropyl-7-morpholin-4-yl-3H-[1,2,3]triazolo[4,5-d]pyrimidin-5-yl)-phenyl]-3-isoxazol-4-yl-urea]
47 nM | 20 nM | O=C(Nc1ccc(-c2nc(N3CCOCC3)c3nnn(CCO)c3n2)cc1)Nc1cccnc1 [Example 184, 1-{4-[3-(2-hydroxyethyl)-7-morpholin-4-yl-3H-[1,2,3]triazolo[4,5-d]pyrimidin-5-yl]phenyl}-3-pyridin-3-ylurea]
40 nM | 15.5 nM | COc1ccc(NC(=O)Nc2ccc(-c3nc(N4CCOCC4)c4nnn(C(C)C)c4n3)cc2)cc1 [Example 89, 1-(4-methoxy-phenyl)-3-[4-(3-isopropyl-7-morpholin-4-yl-3H-[1,2,3]triazolo[4,5-d]pyrimidin-5-yl)-phenyl]-urea]
30.5 nM | 13 nM | CN(C)c1ccc(NC(=O)Nc2ccc(-c3nc(N4CCOCC4)c4nnn(CC(F)(F)F)c4n3)cc2)cc1 [Example 137, 1-[4-(dimethylamino)phenyl]-3-{4-[7-morpholin-4-yl-3-(2,2,2-trifluoroethyl)-3H-[1,2,3]triazolo[4,5-d]pyrimidin-5-yl]phenyl}urea]
